# Reference: patent publication US20090203693A1, “THERAPEUTIC AGENT FOR LIVER FIBROSIS” (Eisai R & D Management Co., Ltd., priority 2006, published 2009)
# Molecular target: T1, His6-DDR2 (cytoplasmic domain of human DDR2) (Homo sapiens, UniProt Q16832)
# T1 construct: cytoplasmic domain of DDR2 having 6 histidines fused to the N-terminus thereof; made in house; host or cells: Sf9 insect cells (baculovirus, pFastBac-HT)
# T1 sequence (Q16832 422-855 limits assumed): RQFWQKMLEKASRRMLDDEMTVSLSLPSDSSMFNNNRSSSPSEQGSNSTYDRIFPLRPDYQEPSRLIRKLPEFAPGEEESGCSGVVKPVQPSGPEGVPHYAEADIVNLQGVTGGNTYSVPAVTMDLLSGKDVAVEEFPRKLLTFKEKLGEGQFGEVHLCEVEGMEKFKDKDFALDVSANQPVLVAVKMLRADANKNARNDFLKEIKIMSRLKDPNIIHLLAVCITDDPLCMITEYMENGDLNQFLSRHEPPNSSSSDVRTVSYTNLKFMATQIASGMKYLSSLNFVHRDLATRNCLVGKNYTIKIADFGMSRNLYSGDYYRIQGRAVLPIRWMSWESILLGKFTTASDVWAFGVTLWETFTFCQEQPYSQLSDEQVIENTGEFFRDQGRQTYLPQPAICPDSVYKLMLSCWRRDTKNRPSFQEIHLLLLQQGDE
# Experiment: Determination of DDR2 kinase inhibitory activity (His6-DDR2 tyrosine autophosphorylation, HTRF)
# Type: biochemical
# Conditions: cell free, ATP, room temperature 10 minutes, HTRF detection; read-out: IC50 (concentration of the test substance required for inhibiting His6-DDR2 kinase activity by 50%)
# From the text: A DNA fragment of cytoplasmic domain of human DDR2 (SEQ ID NO: 1) was isolated by PCR method (Expand High Fidelity (purchased from Roche)) according to a conventional technique using human brain cDNA library (purchased from Clontech) as a template and SEQ ID NO:3: 5′-[…]-3′ and SEQ ID NO:4: 5′-[…]-3′ (purchased from JBioS) as primers. This DNA fragment was inserted into a baculovirus transplacement vector (pFastBac™-HT (purchased from Invitrogen)) to obtain a recombinant construct. Insect cells (Spodoptera frugiperda 9 (Sf9 cells)) were transfected with this recombinant construct, thereby preparing a DDR2 recombinant baculovirus solution. For preparation of a recombinant baculovirus, we referred to a standard textbook (Bac-to-Bac Baculovirus Expression System (Invitrogen)).
# The above-described DDR2 recombinant Baculovirus solution (0.07 mL) was added to Sf9 cells (7×10^7 cells) suspended in 2.5% FBS-containing SF-900II medium (purchased from Invitrogen) and shake-cultured at 27° C. for 72 hours. Then, this DDR2 recombinant Baculovirus-infected cells were subjected to centrifugation at 1,600 rpm at 4° C. for 6 minutes and the supernatant was removed. The precipitated infected cells were suspended in 10 mL of ice-cold PBS and centrifuged at 1,600 rpm at 4° C. for 6 minutes to remove the supernatant. The precipitated infected cells were suspended in 5 mL of ice-cold lysis buffer (50 mM Tris-HCl (pH 8.5), 5 mM 2-mercaptoethanol, 100 mM KCl, 1 mM PMSA, 1% (v/v) NP40), and centrifuged at 10,000 rpm at 4° C. for 10 minutes to obtain the supernatant.
# This supernatant was added to a Ni-NTA agarose column (1.5 mL (purchased from Qiagen)) equilibrated with 5 mL of buffer A (20 mM Tris-HCl (pH 8.5), 5 mM 2-mercaptoethanol, 500 mM KCl, 20 mM imidazole, 10% (v/v) glycerol). This column was sequentially washed with 10 mL of buffer A, 2 mL of buffer B (20 mM Tris-HCl (pH8.5), 5 mM 2-mercaptoethanol, 1 M KCl, 10% (v/v) glycerol) and 2 mL of buffer A. Subsequently, 4 mL of buffer C (20 mM Tris-HCl (pH 8.5), 5 mM 2-mercaptoethanol, 100 mM KCl, 100 mM imidazole, 10% (v/v) glycerol) was added to obtain an eluate. This eluate was placed in a dialysis membrane (purchased from Spectrum Medical Industries) and dialyzed against 1 L of dialysis buffer (20 mM Tris-HCl, 10% (v/v) glycerol, 1 mM dithiothreitol, 0.1 mM Na3VO4, 0.1 mM EGTA) at 4° C. overnight. After dialysis, a portion of the eluate was subjected to SDS-PAGE and an amount of the recombinant protein detected at a molecular weight of about 40 kDa (His6-DDR2 (cytoplasmic domain of DDR2 having 6 histidines fused to the N-terminus thereof)) by Coomassie brilliant blue staining was quantitated using BSA as a standard substance.
# To each well of a 96-well black half plate (purchased from Corning, Product No: 3694), 20 ng of His6-DDR2, 35 μL of 25 mM Hepes solution (pH 7.4) containing 14 mM MgCl2 and a test substance dissolved in dimethylsulfoxide (at 100-fold dilution with 1% BSA; 5 μL) were added to a total amount of 40 μL. To this, […] of 50 μM ATP (purchased with Sigma) diluted with 25 mM Hepes solution was added and incubated at room temperature for 10 minutes. Thereafter, 10 μL of 50 mM EDTA (pH 8.0) (purchased from Wako Pure Chemical Industries) was added to terminate the kinase reaction.
# Tyrosine-phosphorylated DDR2 was detected using homogeneous time resolved fluorescence (HTRF) technique (Analytical Biochemistry, 269, 94-104, 1999). Specifically, to each well of the reaction solutions mentioned above, 20 μL of 25 mM Hepes solution containing 1 M KF, 4.75 ng of europium cryptate-labeled anti-phosphorylated tyrosine antibody (Eu(K)-PT66) and 100 ng of XL665-labeled anti-His antibody (XL665-Anti-His) was added. This reaction solution was incubated at room temperature overnight. Thereafter, fluorescence intensities of each well at 665 nm and 620 nm were measured under irradiation at an excitation wavelength of 337 nm using Discovery HTRF microplate analyzer (from Packard). […]
row,SMILES,IC50
1,"COc1ccc(NC(=O)Nc2ccc(Oc3ccnc4cc(OC)c(OC)cc34)cc2)cc1 [Compound 1, N-(4-methoxyphenyl)-N′-(4-((6,7-dimethoxy-4-quinolinyl)oxy)phenyl)urea]",0.06 nM
2,"CCCCNC(=O)Nc1ccc(Oc2ccnc3cc(OC)c(OC)cc23)cc1 [Compound 2, N-n-butyl-N′-(4-((6,7-dimethoxy-4-quinolinyl)oxy)phenyl)urea]",7.2 nM
3,"COc1cc2nccc(Oc3ccc(NC(=O)Nc4cccc(C(N)=O)c4)cc3)c2cc1OC [Compound 4, N-(3-carbamoylphenyl)-N′-(4-((6,7-dimethoxy-4-quinolinyl)oxy)phenyl)urea]",1.3 nM
4,"COc1cc2nccc(Oc3ccc(NC(=O)Nc4cccc(SC)c4)cc3)c2cc1OC [Compound 5, N-(3-methylthiophenyl)-N′-(4-((6,7-dimethoxy-4-quinolinyl)oxy)phenyl)urea]",1.2 nM
5,"COc1cc2nccc(Oc3ccc(NC(=O)Nc4cccc(S(C)(=O)=O)c4)cc3)c2cc1OC [Compound 6, N-(3-methylsulfonylphenyl)-N′-(4-((6,7-dimethoxy-4-quinolinyl)oxy)phenyl)urea]",1.1 nM
6,"COCCOc1cc2nccc(Oc3ccc(NC(=O)Nc4cccc(S(C)(=O)=O)c4)c(F)c3)c2cc1C#N [Compound 7, N-(4-(6-cyano-7-(2-methoxyethoxy)-4-quinolyl)oxy-2-fluorophenyl)-N′-(3-methylsulfonylphenyl)urea]",0.63 nM
7,"COc1cc2nccc(Oc3ccc(NC(=O)Nc4ccc(F)cc4)c(F)c3)c2cc1C(N)=O [Compound 8, 4-(4-((4-fluoroanilino)carbonyl)amino-3-fluorophenoxy)-7-methoxy-6-quinoline carboxamide]",1.2 nM
8,"COc1cc2nccc(Oc3ccc4c(ccn4C(=O)Nc4ccc(F)cc4)c3)c2cc1OC [Compound 9, 6,7-dimethoxy-4-(5-(1-(4-fluorophenylcarbamoyl)-indolyl)oxy)quinoline]",1.9 nM
9,"COc1cc2nccc(Oc3ccc(NC(=O)NCCCSC)c(F)c3)c2cc1C(N)=O [Compound 10, 4-(3-fluoro-4-((3-methylthiopropylamino)carbonyl)aminophenoxy)-7-methoxy-6-quinolinecarboxamide]",1.5 nM
10,"COc1cc2nccc(Oc3ccc4c(ccn4C(=O)NC4CC4)c3)c2cc1C(N)=O [Compound 12, 6-carbamoyl-4-(1-cyclopropylcarbamoyl-1H-indole-5-yloxy)-7-methoxyquinoline]",0.15 nM
11,"CN1CCC(C(=O)Nc2cc(Oc3ccc4c(ccn4C(=O)Nc4ccccc4)c3)ccn2)CC1 [Compound 14, N1-phenyl-5-((2-(((1-methyl-4-piperidyl)carbonyl)amino)-4-pyridyl)oxy)-1H-1-indolecarboxamide]",0.24 nM
12,"N#Cc1cc2c(Oc3ccc(Cl)c(NC(=O)NC4CC4)c3)ccnc2cc1OCCN1CCCC1 [Compound 15, N-(2-chloro-5-((6-cyano-7-(2-(1-pyrrolidino)ethoxy)-quinolyl)oxy)phenyl)-N′-cyclopropylurea]",822 nM
13,N#Cc1cc2c(Oc3ccc(Cl)c(NC(=O)NC4CC4)c3)ccnc2cc1OC[C@H](O)CN1CCCC1 [Compound 17],20.8 nM
14,CCNC(=O)Nc1ccc(Oc2ccnc3cc(OC[C@H](O)CN(CC)CC)c(C(=O)NC)cc23)cc1Cl [Compound 21],28 nM
15,"CCNC(=O)Nc1ccc(Oc2ccnc3cc(OC[C@H](O)CN4CCCC4)c(C(=O)NC)cc23)cc1Cl [Compound 22, N6-methyl-4-(3-chloro-4-(((ethylamino)carbonyl)amino)phenoxy)-7-((2R)-2-hydroxy-3-(1-pyrrolidino)propoxy)-6-quinolinecarboxamide]",0.4 nM

# More lines, now with the values ahead:
row,IC50,SMILES
1,0.91 nM,"COc1cc2nccc(Oc3ccc(NC(=O)NC4CC4)c(Cl)c3)c2cc1C(N)=O [Compound 11, 4-(3-chloro-4-(cyclopropylaminocarbonyl)aminophenoxy)-7-methoxy-6-quinolinecarboxamide]"
2,18 nM,"COCCNC(=O)c1cc2c(Oc3ccc(NC(=O)NC4CC4)c(Cl)c3)ccnc2cc1OC [Compound 13, N6-(2-methoxyethyl)-4-(3-chloro-4-(((cyclopropylamino)carbonyl)amino)phenoxy)-7-methoxy-6-quinolinecarboxamide]"
3,1890 nM,"CNC(=O)Nc1cc(Oc2ccnc3cc(OC)c(C(=O)NC)cc23)ccc1Cl [Compound 16, N6-methyl-4-(4-chloro-3-(((methylamino)carbonyl)amino)phenoxy)-7-methoxy-6-quinolinecarboxamide]"
4,0.4 nM,"CNC(=O)c1cc2c(Oc3ccc(NC(=O)NC4CC4)c(Cl)c3)ccnc2cc1OCCOC [Compound 18, N6-methyl-4-(3-chloro-4-(((cyclopropylamino)carbonyl)amino)phenoxy)-7-(2-methoxyethoxy)-6-quinolinecarboxamide]"
5,178 nM,"CCNC(=O)Nc1ccc(Oc2ccnc3cc(OC)c(C(=O)NC)cc23)cc1Cl [Compound 19, N6-methyl-4-(3-chloro-4-(((ethylamino)carbonyl)amino)phenoxy)-7-methoxy-6-quinolinecarboxamide]"
6,428 nM,"CCNC(=O)Nc1ccc(Oc2ccnc3cc(OC)c(C(=O)NCC)cc23)cc1Cl [Compound 20, N6-ethyl-4-(3-chloro-4-(((ethylamino)carbonyl)amino)phenoxy)-7-methoxy-6-quinolinecarboxamide]"
7,18 nM,"CCNC(=O)Nc1ccc(Oc2ccnc3cc(OCC4CCN(C)CC4)c(C(=O)NC)cc23)cc1Cl [Compound 23, N6-methyl-4-(3-chloro-4-(((ethylamino)carbonyl)amino)phenoxy)-7-((1-methyl-4-piperidyl)methoxy)-6-quinolinecarboxamide]"
